Assay results: patent US20240208961A1, “EIF4E INHIBITORS AND USES THEREOF” (PIC Therapeutics, Inc., priority 2022, published 2024)

How the values were obtained:
Human eIF4E (aa 28-217) = biological target: T1, Human eIF4E (aa 28-217) (Homo sapiens, UniProt P06730); assay: 4G-eIF4E protein-based assay (TR-FRET, biotin labeled 4G2 peptide); format: binding
T1 construct: Human eIF4E (aa 28-217) with a C-terminal His-tag; made in house
Description: Human eIF4E ([…]) with a C-terminal His-tag was expressed in E. coli in inclusion bodies. The protein was solubilized with 8 M urea and purified under denaturing conditions using nickel-charged HisTrap HP columns (GE Healthcare). The purified protein was then refolded by diluting in 20 mM Hepes pH 7.0, 0.5 M NaCl, 1 mM DTT, […], 0.5 M arginine plus 6 M urea, and then dialyzing overnight into the same buffer without the urea. The protein was further dialyzed into 20 mM Hepes, pH 6.5, 50 mM NaCl, 1 mM EDTA, 1 mM DTT, and concentrated using Hitrap SP sepharose FF columns (GE Healthcare). The concentrated protein was dialyzed into 20 mM Hepes, pH 7.0, 0.5M NaCl, 5 mM DTT and […], and stored at -80° C. until use. Test compounds (3.43 mM stock in DMSO) were diluted 2-fold in series in DMSO (10 concentration points). Compound solutions (1.2 μL/well) were added into black 384-well polypropylene microplates (Matrix, Thermal Scientific). […] The samples were incubated at room temperature (20-23° C.) for 4 hours. Biotin labeled 4G2 peptide ([…])-NH2, 1.75 μM stock in DMSO) was diluted to 0.13 μM in Assay Buffer (without DTT) and 5 μL/well was added. The samples were incubated at room temperature for 20 min. Five microliters per well of 15 nM Eu-streptavidin (Eu-SA, Perkin Elmer) and 96 nM Allophycocyanin (APC)-anti His antibody (Columbia Biosciences) in Assay Buffer (without DTT) were then added and the samples were incubated at room temperature for 20 min. Assay signals were monitored by reading excitation at 340 nm and emission fluorescence at 615 nm and 665 nm on an Envision reader (Perkin Elmer). Normalized TR-FRET (time-resolved fluorescence resonance energy transfer) assay signal (Rn) was calculated by the formula: […] C=(Ac-Ba)/(Dc-Bd) • Where Ac is the fluorescence intensity of 1.5 nM Eu-SA in the assay buffer at 665 nm. IC50 values were calculated using xLFit program (IDBS).

ZR-75-1 = ZR-75-1 compound screening cell viability, Alamar Blue (Example 6); format: cell-based; conditions: Homo sapiens, 96 h, ZR-75-1 cells, Media 1% FBS, read-out: ZR-75-1 Cell Viability, 4 Days: IC50
NIHOVCAR3 = assay: Cell viability assay, adherent cell line, 5 day Alamar Blue (Example 8): NIHOVCAR3; format: cell-based; conditions: Homo sapiens, OVCAR-3, 120 h, OVCAR3, Ovarian Cancer Cell
Description: (§1) Cell viability assays were performed on certain compounds of the disclosure, according to the following procedure.
(§2) Cell line specific media conditions used:
(§3) The procedure for adherent cell line compound screening was as follows:
(§4) • Cells were seeded in 96-well cell culture treated tissue culture plates: ZR-75-1, NIHOVCAR3, T47D, and LOVO cells 4000 cells/well; and HPAFII 3000 cell/well
(§5) Day 3: Compound Dilution and Dosing
(§6) • 5-fold serial dilution (8 point) of each compound in DMSO 0-25 mM in compound storage plates was prepared (stored at −80° C. if not to be used immediately). • Cells were rinsed with 1% FBS Media (appropriate to cell line as described above) and replaced with 87.5 μL media prior to dosing. HPAFII was screened in normal 10% FBS Media. • DMSO compound dilution series was diluted in 1% FBS media (appropriate to cell line as described above)—2 μL in 248 μL to give an 8× final concentration. • Cells were dosed 12.5 μL/well in triplicate to give final dose curved on cells 0-25 μM. • Media blank 100 μL/well×8 was set up. • All plates were incubated at 37° C.
(§7) Day 8: 5 Day Viability Assay
(§8) • Alamar Blue viability reagent was added (10 μL per well) and incubated for 3 hours at 37° C. prior to fluorescence detection (Ex560 nm/Em590 nm) on a Varioskan Lux multimode plate reader.
(§9) Results from cell viability assays are summarized in Table 23, wherein A represents IC50≤1 μM; B represents 1 μM<IC50≤8 μM; and C represents IC50>8 μM. Blank cells indicate that the compound was not tested in a particular assay.

T47D = assay: Cell viability assay, adherent cell line, 5 day Alamar Blue (Example 8): T47D; format: cell-based; conditions: Homo sapiens, 120 h, Breast Cancer Cell Viability
Description: as §1, §2, §3, §4, §5, §6, §7, §8, §9

LoVo = assay: Cell viability assay, adherent cell line, 5 day Alamar Blue (Example 8): LoVo; format: cell-based; conditions: Homo sapiens, 120 h, Colorectal Cancer Cell Viability
Description: as §1, §2, §3, §4, §5, §6, §7, §8, §9

HPAFII = assay: Cell viability assay, adherent cell line, 5 day Alamar Blue (Example 8): HPAFII; format: cell-based; conditions: Homo sapiens, HPAF-II, 120 h, Pancreatic Cancer Cell
Description: as §1, §2, §3, §4, §5, §6, §7, §8, §9

MM.1S = assay: Cell viability assay, suspension cell line, 5 day Alamar Blue (Example 8): MM.1S; format: cell-based; conditions: Homo sapiens, MM1.S, 120 h, Multiple Myeloma (Steroid Sensitive) Cancer Cell
Description: as §1, §2
(§10) The procedure for suspension cell line compound screening was as follows:
(§11) Day 1: Cell Seeding and Compound Dosing
as §6, with “• Cells were seeded 2×10^5 in 96-well cell culture treated tissue culture plates: 87.5 μL/well; MM.1 S, MM,1R, NCIH510A. • 5-fold” for “• 5-fold”, “to dosing. • DMSO” for “to dosing. HPAFII was screened in normal 10% FBS Media. • DMSO”
(§12) Day 6: 5 Day Viability Assay
as §8, §9

MM.1R = assay: Cell viability assay, suspension cell line, 5 day Alamar Blue (Example 8): MM.1R; format: cell-based; conditions: 120 h, Multiple Myeloma (Steroid Resistant) Cancer Cell
Description: as §1, §2, §10, §11
as §6, with “• Cells were seeded 2×10^5 in 96-well cell culture treated tissue culture plates: 87.5 μL/well; MM.1 S, MM,1R, NCIH510A. • 5-fold” for “• 5-fold”, “to dosing. • DMSO” for “to dosing. HPAFII was screened in normal 10% FBS Media. • DMSO”
as §12, §8, §9

NCIH510A = assay: Cell viability assay, suspension cell line, 5 day Alamar Blue (Example 8): NCIH510A; format: cell-based; conditions: Homo sapiens, NCI-H510A, 120 h, Small Cell Lung Cancer Cell Line
Description: as §1, §2, §10, §11
as §6, with “• Cells were seeded 2×10^5 in 96-well cell culture treated tissue culture plates: 87.5 μL/well; MM.1 S, MM,1R, NCIH510A. • 5-fold” for “• 5-fold”, “to dosing. • DMSO” for “to dosing. HPAFII was screened in normal 10% FBS Media. • DMSO”
as §12, §8, §9

T1 sequence (P06730 28-217): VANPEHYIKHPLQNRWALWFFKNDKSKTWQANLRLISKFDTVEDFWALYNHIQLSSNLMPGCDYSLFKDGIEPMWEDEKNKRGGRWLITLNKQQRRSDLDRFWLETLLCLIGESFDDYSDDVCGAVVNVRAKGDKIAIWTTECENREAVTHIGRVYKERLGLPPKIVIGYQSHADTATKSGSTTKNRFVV

Row | SMILES | IC50 (Human eIF4E (aa 28-217)) [nM] | IC50 (ZR-75-1) [nM] | IC50 (NIHOVCAR3) [nM] | IC50 (T47D) [nM] | IC50 (LoVo) [nM] | IC50 (HPAFII) [nM] | IC50 (MM.1S) [nM] | IC50 (MM.1R) [nM] | IC50 (NCIH510A) [nM]
1 | CC(C)Cc1sc(Nc2ncc(-c3cccs3)cc2C(=O)O)nc1C1=CCOCC1 [Compound I-1] | 500 to 1000 |  |  |  |  |  |  |  | 
2 | CC(C)Cc1sc(Nc2ncc(-c3cccs3)cc2C(=O)O)nc1C1CCCCC1 [Compound I-3] | 500 to 1000 | < 1000 | 1000 to 8000 | 1000 to 8000 | 1000 to 8000 | ≤ 1000 | 1000 to 8000 | 1000 to 8000 | 1000 to 8000
3 | CC(C)Cc1sc(Nc2ncc(-c3cccs3)cc2C(=O)O)nc1C1=CCCC1 [Compound I-8] | 500 to 1000 |  | ≤ 1000 | ≤ 1000 | ≤ 1000 | ≤ 1000 | ≤ 1000 | ≤ 1000 | ≤ 1000
4 | CC(C)Cc1sc(Nc2ncc(-c3cccs3)cc2C(=O)O)nc1C(C)(C)C [Compound I-11] | 500 to 1000 | < 1000 | ≤ 1000 | ≤ 1000 | ≤ 1000 | ≤ 1000 | ≤ 1000 | ≤ 1000 | ≤ 1000
5 | CC(C)Cc1sc(Nc2ncc(-c3cccs3)cc2C(=O)O)nc1C1(C)CCCCC1 [Compound I-27] | ≤ 500 |  | 1000 to 8000 | ≤ 1000 | ≤ 1000 | 1000 to 8000 | 1000 to 8000 | 1000 to 8000 | ≤ 1000
6 | CC(C)Cc1sc(Nc2ncc(-c3cccs3)cc2C(=O)O)nc1C1CCC(F)(F)CC1 [Compound I-29] | 500 to 1000 |  | 1000 to 8000 | 1000 to 8000 | 1000 to 8000 | 1000 to 8000 | 1000 to 8000 | 1000 to 8000 | ≤ 1000
